Measured values as given in PubChem BioAssay AID248 (DTP/NCI, 2004).
Several values for one entry are separate records, joined by “and”; a condition that tells them apart may be missing. Equal entries are not always repeated. Inconclusive results and toxic doses are left out. Numbered stars: 1 amine (or outer) side, 2 acyl side, 3 side chain; on linkers, the order of the positions; unused ones are H or OH. Bridge positions count the residues as written; N and C are the ends. Square brackets hold non-standard residues; d marks the D form. Peptide text beside a SMILES is read from it. I, II: the chains in the order shown. Actinocin(1to9) = Cc1c2oc3c(C)ccc(C(=O)[*:2])c3nc-2c(C(=O)[*:1])c(N)c1=O; X5 = O=C1CC(C(=O)[*:2])N([*:1])C1; NMeV = CN[CH](C(=O)O)C(C)C; Sar = CNCC(=O)O

Tested on: L1210 leukemia ip in BDF1 mice, survival T/C
Assay: NCI In Vivo Anticancer Drug Screen. Data for tumor model L1210 Leukemia (intraperitoneal) in B6D2F1 (BDF1) mice
Settings: higher = longer survival
How it was run: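 Ratio derived from survival: compound-dosed mice over vehicle-dosed mice, all bearing a transplantable tumor.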

[1] = endpoint: mean survival time, dose: 100.0 mg/kg/injection, schedule: Q01DX009 (ip), vehicle: saline with Tween-80
[2] = endpoint: mean survival time, dose: 200.0 mg/kg/injection, schedule: Q01DX009 (ip), vehicle: saline with Tween-80
[3] = endpoint: mean survival time, dose: 400.0 mg/kg/injection, schedule: Q01DX009 (ip), vehicle: saline with Tween-80
[4] = endpoint: mean survival time, dose: 50.0 mg/kg/injection, schedule: Q01DX009 (ip), vehicle: saline
[5] = endpoint: mean survival time, dose: 100.0 mg/kg/injection, schedule: Q04DX003 (ip), vehicle: saline with Tween-80
[6] = endpoint: mean survival time, dose: 50.0 mg/kg/injection, schedule: Q01DX001 (ip), vehicle: saline
[7] = endpoint: mean survival time, dose: 100.0 mg/kg/injection, schedule: Q01DX001 (ip), vehicle: saline
[8] = endpoint: mean survival time, dose: 25.0 mg/kg/injection, schedule: Q01DX009 (ip), vehicle: saline with Tween-80
[9] = endpoint: mean survival time, dose: 50.0 mg/kg/injection, schedule: Q01DX009 (ip), vehicle: saline with Tween-80

Compound: O=C1NC(=O)C(O)(C2(O)C(=O)NC(=O)NC2=O)C(=O)N1
- T/C (endpoint: mean survival time, dose: 75.0 mg/kg/injection, schedule: Q01DX001 (ip), vehicle: carboxymethylcellulose (CMC)): 101 % of control
- T/C [1]: 106 % of control
- T/C (endpoint: mean survival time, dose: 150.0 mg/kg/injection, schedule: Q01DX001 (ip), vehicle: carboxymethylcellulose (CMC)): 102 % of control
- T/C [2]: 92 % of control
- T/C [3]: 88 % of control

Compound: CCCCCCCCCCCCCCCCOc1ccc(C(=O)Nc2ccc(S(=O)(=O)Nc3cccc4ccccc34)cc2)cc1S(=O)(=O)F
- T/C (endpoint: mean survival time, dose: 100.0 mg/kg/injection, schedule: Q04DX003 (ip), vehicle: Klucel (hydroxypropylcellulose) (HPC)): 102 % of control
- T/C (endpoint: mean survival time, dose: 200.0 mg/kg/injection, schedule: Q04DX003 (ip), vehicle: Klucel (hydroxypropylcellulose) (HPC)): 100 % of control
- T/C (endpoint: mean survival time, dose: 400.0 mg/kg/injection, schedule: Q04DX003 (ip), vehicle: Klucel (hydroxypropylcellulose) (HPC)): 93 % of control

Compound: CC1(C)N=C(N)N=C(N)N1c1ccccc1
- T/C (endpoint: mean survival time, dose: 12.0 mg/kg/injection, schedule: Q01DX009 (ip), vehicle: saline): 104 % of control
- T/C (endpoint: mean survival time, dose: 12.0 mg/kg/injection, schedule: Q04DX003 (ip), vehicle: saline): 97 % of control
- T/C (endpoint: mean survival time, dose: 25.0 mg/kg/injection, schedule: Q01DX009 (ip), vehicle: saline): 99 % of control
- T/C (endpoint: mean survival time, dose: 25.0 mg/kg/injection, schedule: Q04DX003 (ip), vehicle: saline): 101 % of control
- T/C [4]: 98 % of control

Compound: O=C(O)c1ccc(NC(=S)S)cc1
- T/C (endpoint: mean survival time, dose: 100.0 mg/kg/injection, schedule: Q04DX002 (ip), vehicle: Klucel (hydroxypropylcellulose) (HPC)): 103 % of control
- T/C (endpoint: mean survival time, dose: 200.0 mg/kg/injection, schedule: Q04DX002 (ip), vehicle: Klucel (hydroxypropylcellulose) (HPC)): 98 % of control
- T/C (endpoint: mean survival time, dose: 400.0 mg/kg/injection, schedule: Q04DX002 (ip), vehicle: Klucel (hydroxypropylcellulose) (HPC)): 98 % of control

Compound: O=c1c(N2CCOCC2)c(N2CCOCC2)c1=O
- T/C [1]: 100 % of control
- T/C [5]: 104 % of control
- T/C [2]: 100 % of control
- T/C (endpoint: mean survival time, dose: 200.0 mg/kg/injection, schedule: Q04DX003 (ip), vehicle: saline with Tween-80): 103 % of control
- T/C [3]: 100 % of control
- T/C (endpoint: mean survival time, dose: 400.0 mg/kg/injection, schedule: Q04DX003 (ip), vehicle: saline with Tween-80): 95 % of control

Compound: COC1CC(OC(=O)c2ccc(C)cc2)C(COC(=O)c2ccc(C)cc2)O1 (stereo not given)
- T/C (endpoint: mean survival time, dose: 100.0 mg/kg/injection, schedule: Q04DX003 (ip), vehicle: saline): 98 % of control
- T/C (endpoint: mean survival time, dose: 200.0 mg/kg/injection, schedule: Q04DX003 (ip), vehicle: saline): 102 % of control
- T/C (endpoint: mean survival time, dose: 400.0 mg/kg/injection, schedule: Q04DX003 (ip), vehicle: saline): 98 % of control

Compound: O=C(O)c1ccc(CNc2ccc(C(=O)CCl)cc2)cc1
- T/C (endpoint: mean survival time, dose: 100.0 mg/kg/injection, schedule: Q01DX001 (ip), vehicle: carboxymethylcellulose (CMC)): 102 % of control
- T/C (endpoint: mean survival time, dose: 200.0 mg/kg/injection, schedule: Q01DX001 (ip), vehicle: carboxymethylcellulose (CMC)): 102 % of control
- T/C (endpoint: mean survival time, dose: 400.0 mg/kg/injection, schedule: Q01DX001 (ip), vehicle: carboxymethylcellulose (CMC)): 118 % of control

Compound: O=COCC1CC2C=CC1C2 (stereo not given)
- T/C (endpoint: mean survival time, dose: 222.0 mg/kg/injection, schedule: Q01DX Z (ip), vehicle: saline): 98 % of control
- T/C (endpoint: mean survival time, dose: 333.0 mg/kg/injection, schedule: Q01DX Z (ip), vehicle: saline): 102 % of control
- T/C (endpoint: mean survival time, dose: 500.0 mg/kg/injection, schedule: Q01DX Z (ip), vehicle: saline): 97 % of control

Compound: O=C(O)C1(C(=O)O)CCC2(CCCCC2)CC1
- T/C (endpoint: mean survival time, dose: 25.0 mg/kg/injection, schedule: Q01DX009 (ip), vehicle: water): 95 % of control
- T/C (endpoint: mean survival time, dose: 50.0 mg/kg/injection, schedule: Q01DX009 (ip), vehicle: water): 101 % of control

Compound: CCCNCCCSCc1ccccc1
- T/C [6]: 111 % of control
- T/C [7]: 103 % of control

Compound: O=C(Nc1ccc(Cl)c(C(F)(F)F)c1)Oc1ccccn1
- T/C (endpoint: mean survival time, dose: 12.5 mg/kg/injection, schedule: Q01DX009 (ip), vehicle: saline with Tween-80): 101 % of control
- T/C [8]: 99 % of control
- T/C [9]: 92 % of control
- T/C [1]: 93 % of control

Compound: [Cu+2].[Cu+2].[O-]CCCN=Cc1ccccc1[O-].[O-]CCCN=Cc1ccccc1[O-]
- T/C (endpoint: mean survival time, dose: 75.0 mg/kg/injection, schedule: Q01DX001 (ip), vehicle: other): 97 % of control
- T/C (endpoint: mean survival time, dose: 150.0 mg/kg/injection, schedule: Q01DX001 (ip), vehicle: other): 111 % of control
- T/C (endpoint: mean survival time, dose: 300.0 mg/kg/injection, schedule: Q01DX001 (ip), vehicle: other): 102 % of control

Compound: Cc1c2oc3c(C)ccc(C(=O)NC4C(=O)NC(C(C)C)C(=O)N5CCCC5C(=O)N(C)CC(=O)N(C)C(C(C)C)C(=O)OC4C)c3nc-2c(C(=O)NC2C(=O)NC(C(C)C)C(=O)N3CC(=O)CC3C(=O)N(C)CC(=O)N(C)C(C(C)C)C(=O)OC2C)c(N)c1=O (stereo not given) (I: TV[X5][Sar][NMeV] / II: TVP[Sar][NMeV]; ester I:1-I:C, II:1-II:C; linker I:N-II:N via Actinocin(1to9); configuration not given here)
- T/C (endpoint: median survival time, dose: 3.1 micrograms/kg/injection, schedule: Q01DX009 (ip), vehicle: water): 108 % of control
- T/C (endpoint: median survival time, dose: 6.2 micrograms/kg/injection, schedule: Q01DX009 (ip), vehicle: water): 120 % of control
- T/C (endpoint: median survival time, dose: 12.5 micrograms/kg/injection, schedule: Q01DX009 (ip), vehicle: water): 116 % of control
- T/C (endpoint: median survival time, dose: 18.7 micrograms/kg/injection, schedule: Q04DX003 (ip), vehicle: water): 108 % of control
- T/C (endpoint: median survival time, dose: 25.0 micrograms/kg/injection, schedule: Q01DX009 (ip), vehicle: water): 108 % of control
- T/C (endpoint: median survival time, dose: 37.5 micrograms/kg/injection, schedule: Q04DX003 (ip), vehicle: water): 113 % of control

Compound: O=C1NC(=O)C2(CCc3ccc(N(CCCl)CCCl)cc32)N1 (stereo not given)
- T/C (endpoint: median survival time, dose: 100.0 mg/kg/injection, schedule: Q01DX009 (ip), vehicle: Klucel (hydroxypropylcellulose) (HPC)): 105 % of control

Compound: O=C(Nc1ccc(Br)c2c(NC(=O)c3ccccc3)ccc(Br)c12)c1ccccc1
- T/C [6]: 110 % of control
- T/C [7]: 101 % of control
- T/C (endpoint: mean survival time, dose: 200.0 mg/kg/injection, schedule: Q01DX001 (ip), vehicle: saline): 95 % of control
- T/C (endpoint: mean survival time, dose: 400.0 mg/kg/injection, schedule: Q01DX001 (ip), vehicle: saline): 98 % of control

Compound: CN(N=O)C(=O)NCCSSCCNC(=O)N(C)N=O
- T/C (endpoint: mean survival time, dose: 5.0 mg/kg/injection, schedule: Q01DX011 (ip), vehicle: carboxymethylcellulose (CMC)): 107 % of control
- T/C (endpoint: mean survival time, dose: 5.0 mg/kg/injection, schedule: Q01DX Z (ip), vehicle: carboxymethylcellulose (CMC)): 104 % of control
- T/C (endpoint: mean survival time, dose: 10.0 mg/kg/injection, schedule: Q01DX011 (ip), vehicle: carboxymethylcellulose (CMC)): 102 % of control
- T/C (endpoint: mean survival time, dose: 10.0 mg/kg/injection, schedule: Q01DX Z (ip), vehicle: carboxymethylcellulose (CMC)): 104 % of control
- T/C (endpoint: mean survival time, dose: 20.0 mg/kg/injection, schedule: Q01DX011 (ip), vehicle: carboxymethylcellulose (CMC)): 112 % of control
- T/C (endpoint: mean survival time, dose: 20.0 mg/kg/injection, schedule: Q01DX Z (ip), vehicle: carboxymethylcellulose (CMC)): 112 % of control
- T/C (endpoint: mean survival time, dose: 40.0 mg/kg/injection, schedule: Q01DX011 (ip), vehicle: carboxymethylcellulose (CMC)): 161 % of control
- T/C (endpoint: mean survival time, dose: 40.0 mg/kg/injection, schedule: Q01DX Z (ip), vehicle: carboxymethylcellulose (CMC)): 119 % of control

Compound: O=C(NC(=S)Nc1cccc(Cl)c1)c1ccccc1F
- T/C (endpoint: mean survival time, dose: 25.0 mg/kg/injection, schedule: Q01DX009 (ip), vehicle: Klucel (hydroxypropylcellulose) (HPC)): 87 % of control
- T/C (endpoint: mean survival time, dose: 50.0 mg/kg/injection, schedule: Q01DX009 (ip), vehicle: Klucel (hydroxypropylcellulose) (HPC)): 86 % of control
- T/C (endpoint: mean survival time, dose: 100.0 mg/kg/injection, schedule: Q01DX009 (ip), vehicle: Klucel (hydroxypropylcellulose) (HPC)): 87 % of control

Compound: CC(C)[CH2][Sn](=[O])[OH]
- T/C [4]: 96 % of control
- T/C (endpoint: mean survival time, dose: 100.0 mg/kg/injection, schedule: Q01DX009 (ip), vehicle: saline): 100 % of control
- T/C (endpoint: mean survival time, dose: 200.0 mg/kg/injection, schedule: Q01DX009 (ip), vehicle: saline): 100 % of control

Compound: FC(F)c1nc2nc(Cl)c(Cl)nc2[nH]1
- T/C [8]: 100 % of control
- T/C (endpoint: mean survival time, dose: 25.0 mg/kg/injection, schedule: Q04DX003 (ip), vehicle: saline with Tween-80): 101 % of control
- T/C [9]: 105 % of control
- T/C (endpoint: mean survival time, dose: 50.0 mg/kg/injection, schedule: Q04DX003 (ip), vehicle: saline with Tween-80): 97 % of control
- T/C [5]: 102 % of control and 106 % of control

Compound: CC(C)OC(C)(C=O)OC(=O)Nc1cccc2ccccc12 (stereo not given)
- T/C (endpoint: mean survival time, dose: 100.0 mg/kg/injection, schedule: Q04DX002 (sc), vehicle: olive oil, sesame oil, peanut oil): 100 % of control
- T/C (endpoint: mean survival time, dose: 200.0 mg/kg/injection, schedule: Q04DX002 (sc), vehicle: olive oil, sesame oil, peanut oil): 95 % of control
- T/C (endpoint: mean survival time, dose: 400.0 mg/kg/injection, schedule: Q04DX002 (sc), vehicle: olive oil, sesame oil, peanut oil): 103 % of control
